# Results taken from patent publication US20210213104A1, “GLUCAGON AND GLP-1 CO-AGONISTS FOR THE TREATMENT OF CHRONIC KIDNEY DISEASE AND DIABETIC KIDNEY DISEASE IN TYPE 2 DIABETES” (MEDIMMUNE LIMITED, priority 2020, published 2021).
# Tested on: subjects with T2DM and renal impairment
# Test: Phase 2a: continuous glucose monitoring (CGM)
# Format: in vivo, human
# Details: ITT
# Protocol: Cotadutide was titrated from 50 μg up to 300 μg and administered once daily by subcutaneous (SC) injection over 32 days.
# Cotadutide was administered at 50 μg once daily for 4 days, followed by 100 μg daily for 7 days, 200 μg daily for 7 days, and 300 μg daily for 14 days (n=20). Placebo was administered one daily for 32 days (n=20). Cotadutide and placebo were administered in the morning. Dosing commenced following predose baseline vital signs, blood tests (including HbA1c), an electrocardiogram (ECG), body weight measurement, and bioimpedance spectroscopy (BIS). Subjects then returned for daily dosing or remained overnight locally until Day 5, and thereafter, had visits at weekly intervals until a maintenance dose of 300 μg was established. Thus, Cotadutide or placebo was administered at the study site by study personal for the first four doses and on site on Days 5, 12, 19, and 32. At all other times, subjects preformed dosing at home.
# A Freestyle Libre® Pro CGM device was used to measure interstitial glucose levels. […] Data generated by CGM was used at visits to adjust insulin doses and other treatments.
# The CGM sensor, which is a small plastic circular device of 35 mm diameter and 5 mm depth, was applied to the back of the upper arm. Subjects wore the CGM sensor continuously up until the time of a sensor change, which was to occur within 14 days, and they were advised that they could bathe and shower, and swim in up to 3 m depth for up to 30 minutes while wearing the CGM sensor. When the CGM sensor was removed, a new CGM sensor could be reapplied, ideally close to the original site, but with the subject's site preference taken into account. CGM sensors were single-use only.
# If a subject was unable to tolerate wearing the CGM sensor for the entire duration of the study, the sensor was removed; but the subject was to remain in the study with or without continued CGM and could instead be instructed to monitor capillary plasma glucose measurements four times per day (before meals and before bedtime) and record these levels in the diary provided.
# Subjects underwent continuous glucose monitoring (CGM) starting from Day −14 to Day 40 (±5 days), with sensor changes within 14-day intervals. CGM readings were used to analyze change in average CGM glucose and glucose AUC7 d, coefficient of variation as a marker of glycemic variability, and time spent in target glucose range and hypoglycemia, to enable comparison across different dose levels.
# [1] = 200 μg (Days 12 to 18), baseline Days −8 to −2, ANCOVA
# [2] = 200 μg (Days 12 to 18), baseline Days −8 to −2
# [3] = 200 μg Dose (Days 12 to 18), Insulin Dose < 20 U/day
# [4] = 200 μg Dose (Days 12 to 18), Insulin Dose ≥ 20 U/day
# [5] = 200 μg Dose (Days 12 to 18), Total
smiles,measurement,setting,value
CCCCCCCCCCCCCCCC(=O)N[C@@H](CCC(=O)NCCCC[C@H](NC(=O)[C@H](CC(=O)O)NC(=O)[C@H](CO)NC(=O)[C@@H](NC(=O)[C@H](Cc1ccccc1)NC(=O)[C@@H](NC(=O)CNC(=O)[C@H](CCC(N)=O)NC(=O)[C@H](CO)NC(=O)[C@@H](N)Cc1c[nH]cn1)[C@@H](C)O)[C@@H](C)O)C(=O)N[C@@H](CO)C(=O)N[C@@H](CCC(=O)O)C(=O)N[C@@H](Cc1ccc(O)cc1)C(=O)N[C@@H](CC(C)C)C(=O)N[C@@H](CC(=O)O)C(=O)N[C@@H](CO)C(=O)N[C@@H](CCC(=O)O)C(=O)N[C@@H](CCCNC(=N)N)C(=O)N[C@@H](C)C(=O)N[C@@H](CCCNC(=N)N)C(=O)N[C@@H](CC(=O)O)C(=O)N[C@@H](Cc1ccccc1)C(=O)N[C@H](C(=O)N[C@@H](C)C(=O)N[C@@H](Cc1c[nH]c2ccccc12)C(=O)N[C@@H](CC(C)C)C(=O)N[C@@H](CCC(=O)O)C(=O)N[C@@H](C)C(=O)NCC(=O)NCC(=O)O)C(C)C)C(=O)O [Cotadutide],"Time in target range, Difference in LS Mean Change (vs Placebo)","100 μg Dose (Days 5 to 11), Total",22.74%
same,"Average CGM Glucose Over 7-Day Periods, End of Dosing Period, Mean",200 μg (Days 12 to 18),131.724 mg/dL
same,"Average CGM Glucose Over 7-Day Periods, End of Dosing Period, Median",200 μg (Days 12 to 18),121.570 mg/dL
same,"Percentage of time CGM Glucose in Hyperglycemia (>180 mg/dL), End of Dosing Period, Mean",200 μg (Days 12 to 18),14.77%
same,"Percentage of time CGM Glucose in Hyperglycemia (>180 mg/dL), End of Dosing Period, Median",200 μg (Days 12 to 18),6.61%
same,"Average CGM Glucose Over 7-Day Periods, Difference in LS Mean Change (vs Placebo)",[1],-40.34 mg/dL
same,"Average CGM Glucose Over 7-Day Periods, LS Mean Change",[1],-30.66 mg/dL
same,"Percentage of time CGM Glucose in Clinically Significant Hypoglycemia (<54 mg/dL), Difference in LS Mean Change (vs Placebo)",[1],0.43%
same,"Percentage of time CGM Glucose in Clinically Significant Hypoglycemia (<54 mg/dL), LS Mean Change",[1],−0.21%
same,"Percentage of time CGM Glucose in Hyperglycemia (>180 mg/dL), Difference in LS Mean Change (vs Placebo)",[1],−25.47%
same,"Percentage of time CGM Glucose in Hyperglycemia (>180 mg/dL), LS Mean Change",[1],−19.24%
same,"Percentage of time CGM Glucose in Hypoglycemia (<70 mg/dl), Difference in LS Mean Change (vs Placebo)",[1],0.86%
same,"Percentage of time CGM Glucose in Hypoglycemia (<70 mg/dl), LS Mean Change",[1],−0.14%
same,"Average CGM Glucose Over 7-Day Periods, Change from Baseline to End of Dosing Period, Mean",[2],-30.668 mg/dL
same,"Average CGM Glucose Over 7-Day Periods, Change from Baseline to End of Dosing Period, Median",[2],-32.533 mg/dL
same,"Percentage of time CGM Glucose in Hyperglycemia (>180 mg/dL), Change from Baseline to End of Dosing Period, Mean",[2],−19.36%
same,"Percentage of time CGM Glucose in Hyperglycemia (>180 mg/dL), Change from Baseline to End of Dosing Period, Median",[2],−17.72%
same,"Time in target range, LS Mean Change","200 μg Dose (Days 12 to 18), ANCOVA, Insulin Dose < 20 U/day",21.04%
same,"Time in target range, LS Mean Change","200 μg Dose (Days 12 to 18), ANCOVA, Insulin Dose ≥ 20 U/day",12.92%
same,"Time in target range, LS Mean Change","200 μg Dose (Days 12 to 18), ANCOVA, Total",15.62%
same,"Percentage of Time CGM Glucose Within Target Range (70-180 mg/dL), Mean",[3],89.01%
same,"Percentage of Time CGM Glucose Within Target Range (70-180 mg/dL), Median",[3],96.38%
same,"Time in target range, Change from Baseline (Days −8 to −2), Mean",[3],24.48%
same,"Time in target range, Change from Baseline (Days −8 to −2), Median",[3],23.79%
same,"Time in target range, Difference in LS Mean Change (vs Placebo)",[3],25.01%
same,"Percentage of Time CGM Glucose Within Target Range (70-180 mg/dL), Mean",[4],73.53%
same,"Percentage of Time CGM Glucose Within Target Range (70-180 mg/dL), Median",[4],79.59%
same,"Time in target range, Change from Baseline (Days −8 to −2), Mean",[4],11.20%
same,"Time in target range, Change from Baseline (Days −8 to −2), Median",[4],11.27%
same,"Time in target range, Difference in LS Mean Change (vs Placebo)",[4],18.72%
same,"Percentage of Time CGM Glucose Within Target Range (70-180 mg/dL), Mean",[5],78.69%
same,"Percentage of Time CGM Glucose Within Target Range (70-180 mg/dL), Median",[5],80.69%
same,"Time in target range, Change from Baseline (Days −8 to −2), Mean",[5],15.39%
same,"Time in target range, Change from Baseline (Days −8 to −2), Median",[5],14.44%
same,"Time in target range, Difference in LS Mean Change (vs Placebo)",[5],20.96%
